This is an account of results in patent US10144708B2, “Crystalline arylalkylamine compound and process for producing the same” (MITSUBISHI TANABE PHARMA CORPORATION, priority 2013, dated 2018).

What all share (assay type): physicochemical
Data set [1] in a line: Stability test: storage of Compound (A) and salts thereof, total increase in amounts of related substance. To be noted: for Total increase in amounts of related substance (%): storage 60° C., 1 Week; for Increase in the amounts of related substance on storage (in words): storage conditions of Table 3 (60° C., Natural or 75% RH, 1 Week). As to the method:
Compound (A) and salts thereof were stored under the storage conditions described in Table 3, and the total increase in the amounts of related substance was measured.

Test in data set [2]: as above
To be noted: conditions of No. 16 of Table 3: 60° C., 75% RH, 1 Week.

Data set [3] in a line: Determination of crystal form stable at room temperature (form A and form B suspended together in chloroform, powder X-ray diffractometry). The settings on record: equal amounts of form A and form B suspended in chloroform, stirred at room temperature overnight. Here is the method:
Equal amounts of the form A crystal and the form B crystal of Compound (A) were added to the same container and were suspended in chloroform. The suspension was stirred at room temperature overnight. Thereafter, the suspended matter was filtered off and was analyzed by powder X-ray diffractometry to determine the type of the crystal form.

Where [4] appears, read: Natural humidity, hydrochloride.

In the case of `C[C@@H](N[C@H]1CCN(c2ccc(CC(=O)O)cc2)C1)c1cccc2ccccc12.Cl` [Compound (A) 1.7HCl Amorphous, 4-(3S-(1R-(1-naphthyl)ethylamino)pyrrolidin-1-yl)phenylacetic acid.1.7 hydrochloride], the “Total increase in amounts of related substance (%)” value (from here on “Total increase in amounts … (%)”) in data set [1] (75% RH, hydrochloride) came to 3.06%; in data set [1] (setting [4]) it was 8.33%. Moreover, in data set [1] (listed as amorphous Compound (A).1.7 hydrochloride, hydrochloride), the “Increase in the amounts of related substance on storage (in words)” value (from here on “Increase in the amounts”) is reported as “significantly increased”.
With `C[C@@H](N[C@H]1CCN(c2ccc(CC(=O)O)cc2)C1)c1cccc2ccccc12.Cl` [Compound (A) 1HCl Crystal, 4-(3S-(1R-(1-naphthyl)ethylamino)pyrrolidin-1-yl)phenylacetic acid-monohydrochloride], the “Total increase in amounts … (%)” value turned out to be 1.02% in data set [1] (75% RH) and 0.18% in data set [1] (Natural humidity). Further, the “Increase in the amounts” value in data set [1] (listed as Compound (A).monohydrochloride) was “increase in the amounts of related substance was observed”.
Take `C[C@@H](N[C@H]1CCN(c2ccc(CC(=O)O)cc2)C1)c1cccc2ccccc12.Cl` [Compound (A) 1.5HCl Amorphous, 4-(3S-(1R-(1-naphthyl)ethylamino)pyrrolidin-1-yl)phenylacetic acid-1.5 hydrochloride]: the “Total increase in amounts … (%)” value is given as 3.11% in data set [1] (75% RH, hydrochloride) and 8.21% in data set [1] (setting [4]). In data set [1] (listed as amorphous Compound (A).1.5 hydrochloride, hydrochloride), the “Increase in the amounts” value is reported as “significantly increased”.
Consider `C[C@@H](N[C@H]1CCN(c2ccc(CC(=O)O)cc2)C1)c1cccc2ccccc12` [Compound (A) Crystal (Form B), 4-(3S-(1R-(1-naphthyl)ethylamino)pyrrolidin-1-yl)phenylacetic acid (form B crystal)], for which the “Total increase in amounts … (%)” value in data set [1] (75% RH) and in data set [1] (Natural humidity) was 0.00% each time. The “Increase in the amounts” value in data set [1] (listed as form B crystal of Compound (A)) is “did not show a marked increase”.
Take `C1CCOC1.C[C@@H](N[C@H]1CCN(c2ccc(CC(=O)O)cc2)C1)c1cccc2ccccc12.Cl` [Compound (A) 1HCl•1THF Crystal, 4-(3S-(1R-(1-naphthyl)ethylamino)pyrrolidin-1-yl)phenylacetic acid.monohydrochloride.monotetrahydrofuran solvate]: the figures for the “Total increase in amounts … (%)” value in data set [1] (75% RH) and in data set [1] (Natural humidity) were 1.04% and 0.75%, respectively. The “Increase in the amounts” value in data set [1] is reported as “increase in the amounts of related substance was observed”. Further, in data set [2], the “Change of solid form on storage” value was “conversion thereof into Compound (A).monohydrochloride (crystal)”.
For the compound `C[C@@H](N[C@H]1CCN(c2ccc(CC(=O)O)cc2)C1)c1cccc2ccccc12` [Compound (A) Amorphous, 4-(3S-(1R-(1-naphthyl)ethylamino)pyrrolidin-1-yl)phenylacetic acid (amorphous)], the “Total increase in amounts … (%)” value in data set [1] (75% RH) was 14.16%; in data set [1] (Natural humidity), 3.32%. Besides, in data set [1] (listed as amorphous Compound (A)), the “Increase in the amounts” value is given as “significantly increased”.
Consider `C[C@@H](N[C@H]1CCN(c2ccc(CC(=O)O)cc2)C1)c1cccc2ccccc12` [Compound (A) Crystal (Form A), 4-(3S-(1R-(1-naphthyl)ethylamino)pyrrolidin-1-yl)phenylacetic acid (form A crystal)], for which the “Total increase in amounts … (%)” value was 0.01% in data set [1] (75% RH) and 0.03% in data set [1] (Natural humidity). Besides, in data set [1] (listed as form A crystal of Compound (A)), the “Increase in the amounts” value was “did not show a marked increase”. In data set [3], the “Crystal form stable at room temperature” value is reported as “more stable at room temperature”.
On to `Br.C[C@@H](N[C@H]1CCN(c2ccc(CC(=O)O)cc2)C1)c1cccc2ccccc12` [Compound (A) 1HBr Crystal, 4-(3S-(1R-(1-naphthyl)ethylamino)pyrrolidin-1-yl)phenylacetic acid.monohydrobromide], for which the “Total increase in amounts … (%)” value is given as 0.13% in data set [1] (75% RH) and 0.21% in data set [1] (Natural humidity). For the same compound, in data set [1], the “Increase in the amounts” value is “increase in the amounts of related substance was observed”.
